Laboratory results from patent publication US4068070A, “α-Cyanoamine compounds and a process for producing the same” (Fuji Chemical Industry Co., Ltd., priority 1974, dated 1978).

Tests used:
Type in all cases: in vivo, mongrel adult dogs
[1] = tested on: arterial mean blood pressure; assay: Effects on arterial mean blood pressure
Experimental: (§1) All experiments were made on male and female thoractomized mongrel adult dogs weighing about 10 kg. under anesthesia with pentobarbital sodium. Compounds A, D, E and F were suspended in 0.2% CMC solution, Compound B dissolved in hydrochloric acid solution (pH 6), and Compound C and active placebo being dissolved in physiological saline solution. Animals were administered the drug intravenously on brachiuma with either test compound or active placebo.
(§2) Arterial blood pressure was measured by pressure transducer (Nippon Koden MPU-0.5) connected with the cannula inserted from exposed carotid artery into aorta. Aortic blood flow was determined by means of electromagnetic flow meter (Nippon Koden MF-5) mounted at the origin of the aorta. Coronary sinus out flow and coronary sinus oxygen tension were assessed by means of electromagnetic flow meter (Nippon Koden MF-5) and P02 macro electrode (Beokmann Moder 160-C), respectively using Morawitz cannulization technique. Heart rate was measured by cardiotachometer (Nippon Koden RT-2) synchronized with systolic blood pressure of aorta.

[2] = tested on: aortic blood flow; assay: Effects on aortic blood flow
Experimental: as §1, §2

[3] = tested on: coronary sinus out flow; assay: Effects on coronary sinus out flow
Experimental: as §1, §2

[4] = tested on: coronary sinus oxygen tension; assay: Effects on coronary sinus oxygen tension
Experimental: as §1, §2

[5] = tested on: heart rate; assay: Effects on heart rate
Experimental: as §1, §2

SMILES: COc1ccc(C(C#N)N2CCN(CC(=O)N3CCCC3)CC2)cc1OC (centres unmarked) [Compound C]
- Changes (%) of basal values, arterial mean blood pressure ([1]; 2.0 mg/kg i.v., 1 min): +0.8%
- Changes (%) of basal values, arterial mean blood pressure ([1]; 2.0 mg/kg i.v., 5 min): 0%
- Changes (%) of basal values, arterial mean blood pressure ([1]; 2.0 mg/kg i.v., 10 min): 0%
- Changes (%) of basal values, arterial mean blood pressure ([1]; 2.0 mg/kg i.v., 20 min): 0%
- Changes (%) of basal values, arterial mean blood pressure ([1]; 2.0 mg/kg i.v., 30 min): 0%
- Changes (%) of basal values, arterial mean blood pressure ([1]; 2.0 mg/kg i.v., 40 min): 0%
- Changes (%) of basal values, arterial mean blood pressure ([1]; 2.0 mg/kg i.v., imm.): -4.2%
- Changes (%) of basal values, arterial mean blood pressure ([1]; 6.0 mg/kg i.v., 1 min): -3.9%
- Changes (%) of basal values, arterial mean blood pressure ([1]; 6.0 mg/kg i.v., 5 min): -1.6%
- Changes (%) of basal values, arterial mean blood pressure ([1]; 6.0 mg/kg i.v., 10 min): -0.7%
- Changes (%) of basal values, arterial mean blood pressure ([1]; 6.0 mg/kg i.v., 20 min): -3.6%
- Changes (%) of basal values, arterial mean blood pressure ([1]; 6.0 mg/kg i.v., 30 min): -2.5%
- Changes (%) of basal values, arterial mean blood pressure ([1]; 6.0 mg/kg i.v., 40 min): -1.3%
- Changes (%) of basal values, arterial mean blood pressure ([1]; 6.0 mg/kg i.v., imm.): -12.1%
- Changes (%) of basal values, arterial mean blood pressure ([1]; 20.0 mg/kg i.v., 1 min): -17.1%
- Changes (%) of basal values, arterial mean blood pressure ([1]; 20.0 mg/kg i.v., 5 min): -18.8%
- Changes (%) of basal values, arterial mean blood pressure ([1]; 20.0 mg/kg i.v., 10 min): -22.2%
- Changes (%) of basal values, arterial mean blood pressure ([1]; 20.0 mg/kg i.v., 20 min): -27.2%
- Changes (%) of basal values, arterial mean blood pressure ([1]; 20.0 mg/kg i.v., 30 min): -28.0%
- Changes (%) of basal values, arterial mean blood pressure ([1]; 20.0 mg/kg i.v., 40 min): -26.1%
- Changes (%) of basal values, arterial mean blood pressure ([1]; 20.0 mg/kg i.v., imm.): -29.0%
- Effects on arterial mean blood pressure (in words) ([1]; i.v., anesthetized dogs): hypotensive effects being proportioned to their doses which were of long duration
- Changes (%) of basal values, aortic blood flow ([2]; 2.0 mg/kg i.v., 1 min): +2.3%
- Changes (%) of basal values, aortic blood flow ([2]; 2.0 mg/kg i.v., 5 min): +0.7%
- Changes (%) of basal values, aortic blood flow ([2]; 2.0 mg/kg i.v., 10 min): -1.5%
- Changes (%) of basal values, aortic blood flow ([2]; 2.0 mg/kg i.v., 20 min): -0.3%
- Changes (%) of basal values, aortic blood flow ([2]; 2.0 mg/kg i.v., 30 min): -0.1%
- Changes (%) of basal values, aortic blood flow ([2]; 2.0 mg/kg i.v., 40 min): 0%
- Changes (%) of basal values, aortic blood flow ([2]; 2.0 mg/kg i.v., imm.): +1.1%
- Changes (%) of basal values, aortic blood flow ([2]; 6.0 mg/kg i.v., 1 min): +3.4%
- Changes (%) of basal values, aortic blood flow ([2]; 6.0 mg/kg i.v., 5 min): +1.1%
- Changes (%) of basal values, aortic blood flow ([2]; 6.0 mg/kg i.v., 10 min): 0%
- Changes (%) of basal values, aortic blood flow ([2]; 6.0 mg/kg i.v., 20 min): -1.0%
- Changes (%) of basal values, aortic blood flow ([2]; 6.0 mg/kg i.v., 30 min): -2.0%
- Changes (%) of basal values, aortic blood flow ([2]; 6.0 mg/kg i.v., 40 min): -1.1%
- Changes (%) of basal values, aortic blood flow ([2]; 6.0 mg/kg i.v., imm.): +8.5%
- Changes (%) of basal values, aortic blood flow ([2]; 20.0 mg/kg i.v., 1 min): +6.2%
- Changes (%) of basal values, aortic blood flow ([2]; 20.0 mg/kg i.v., 5 min): +4.8%
- Changes (%) of basal values, aortic blood flow ([2]; 20.0 mg/kg i.v., 10 min): +1.3%
- Changes (%) of basal values, aortic blood flow ([2]; 20.0 mg/kg i.v., 20 min): -7.1%
- Changes (%) of basal values, aortic blood flow ([2]; 20.0 mg/kg i.v., 30 min): -11.9%
- Changes (%) of basal values, aortic blood flow ([2]; 20.0 mg/kg i.v., 40 min): -8.3%
- Changes (%) of basal values, aortic blood flow ([2]; 20.0 mg/kg i.v., imm.): +15.8%
- Effects on aortic blood flow (in words) ([2]; i.v., anesthetized dogs): an increase in blood flow immediately after administration, followed by a decrease in blood flow
- Changes(%) of basal values, coronary sinus out flow ([3]; 2.0 mg/kg i.v., 1 min): +4.7%
- Changes(%) of basal values, coronary sinus out flow ([3]; 2.0 mg/kg i.v., 5 min): +4.9%
- Changes(%) of basal values, coronary sinus out flow ([3]; 2.0 mg/kg i.v., 10 min): +3.2%
- Changes(%) of basal values, coronary sinus out flow ([3]; 2.0 mg/kg i.v., 20 min): +2.1%
- Changes(%) of basal values, coronary sinus out flow ([3]; 2.0 mg/kg i.v., 30 min): +1.6%
- Changes(%) of basal values, coronary sinus out flow ([3]; 2.0 mg/kg i.v., 40 min): +1.1%
- Changes(%) of basal values, coronary sinus out flow ([3]; 2.0 mg/kg i.v., imm.): +17.8%
- Changes(%) of basal values, coronary sinus out flow ([3]; 6.0 mg/kg i.v., 1 min): +50.7%
- Changes(%) of basal values, coronary sinus out flow ([3]; 6.0 mg/kg i.v., 5 min): +28.6%
- Changes(%) of basal values, coronary sinus out flow ([3]; 6.0 mg/kg i.v., 10 min): +19.4%
- Changes(%) of basal values, coronary sinus out flow ([3]; 6.0 mg/kg i.v., 20 min): +18.2%
- Changes(%) of basal values, coronary sinus out flow ([3]; 6.0 mg/kg i.v., 30 min): +14.3%
- Changes(%) of basal values, coronary sinus out flow ([3]; 6.0 mg/kg i.v., 40 min): +7.6%
- Changes(%) of basal values, coronary sinus out flow ([3]; 6.0 mg/kg i.v., imm.): +58.2%
- Changes(%) of basal values, coronary sinus out flow ([3]; 20.0 mg/kg i.v., 1 min): +103.2%
- Changes(%) of basal values, coronary sinus out flow ([3]; 20.0 mg/kg i.v., 5 min): +92.1%
- Changes(%) of basal values, coronary sinus out flow ([3]; 20.0 mg/kg i.v., 10 min): +80.8%
- Changes(%) of basal values, coronary sinus out flow ([3]; 20.0 mg/kg i.v., 20 min): +56.2%
- Changes(%) of basal values, coronary sinus out flow ([3]; 20.0 mg/kg i.v., 30 min): +36.2%
- Changes(%) of basal values, coronary sinus out flow ([3]; 20.0 mg/kg i.v., 40 min): +30.0%
- Changes(%) of basal values, coronary sinus out flow ([3]; 20.0 mg/kg i.v., imm.): +101.9%
- Effects on coronary sinus out flow (in words) ([3]; i.v., anesthetized dogs): a marked increasing effect on coronary sinus out flow, which was proportioned to doses thereof and of long duration
- Changes(%) of basal values, coronary sinus oxygen tension ([4]; 2.0 mg/kg i.v., 1 min): +5.4%
- Changes(%) of basal values, coronary sinus oxygen tension ([4]; 2.0 mg/kg i.v., 5 min): +2.8%
- Changes(%) of basal values, coronary sinus oxygen tension ([4]; 2.0 mg/kg i.v., 10 min): +2.0%
- Changes(%) of basal values, coronary sinus oxygen tension ([4]; 2.0 mg/kg i.v., 20 min): +1.1%
- Changes(%) of basal values, coronary sinus oxygen tension ([4]; 2.0 mg/kg i.v., 30 min): 0%
- Changes(%) of basal values, coronary sinus oxygen tension ([4]; 2.0 mg/kg i.v., 40 min): 0%
- Changes(%) of basal values, coronary sinus oxygen tension ([4]; 2.0 mg/kg i.v., imm.): +12.1%
- Changes(%) of basal values, coronary sinus oxygen tension ([4]; 6.0 mg/kg i.v., 1 min): +29.2%
- Changes(%) of basal values, coronary sinus oxygen tension ([4]; 6.0 mg/kg i.v., 5 min): +22.3%
- Changes(%) of basal values, coronary sinus oxygen tension ([4]; 6.0 mg/kg i.v., 10 min): +19.8%
- Changes(%) of basal values, coronary sinus oxygen tension ([4]; 6.0 mg/kg i.v., 20 min): +15.0%
- Changes(%) of basal values, coronary sinus oxygen tension ([4]; 6.0 mg/kg i.v., 30 min): +14.3%
- Changes(%) of basal values, coronary sinus oxygen tension ([4]; 6.0 mg/kg i.v., 40 min): +12.0%
- Changes(%) of basal values, coronary sinus oxygen tension ([4]; 6.0 mg/kg i.v., imm.): +36.9%
- Changes(%) of basal values, coronary sinus oxygen tension ([4]; 20.0 mg/kg i.v., 1 min): +96.2%
- Changes(%) of basal values, coronary sinus oxygen tension ([4]; 20.0 mg/kg i.v., 5 min): +86.7%
- Changes(%) of basal values, coronary sinus oxygen tension ([4]; 20.0 mg/kg i.v., 10 min): +70.4%
- Changes(%) of basal values, coronary sinus oxygen tension ([4]; 20.0 mg/kg i.v., 20 min): +63.7%
- Changes(%) of basal values, coronary sinus oxygen tension ([4]; 20.0 mg/kg i.v., 30 min): +60.9%
- Changes(%) of basal values, coronary sinus oxygen tension ([4]; 20.0 mg/kg i.v., 40 min): +51.5%
- Changes(%) of basal values, coronary sinus oxygen tension ([4]; 20.0 mg/kg i.v., imm.): +79.1%
- Effects on coronary sinus oxygen tension (in words) ([4]; i.v., anesthetized dogs): a significant increase in coronary sinus oxygen tension, effect of which was of long duration
- Changes(%) of basal values, heart rate ([5]; 2.0 mg/kg i.v., 1 min): +1.1%
- Changes(%) of basal values, heart rate ([5]; 2.0 mg/kg i.v., 5 min): +0.3%
- Changes(%) of basal values, heart rate ([5]; 2.0 mg/kg i.v., 10 min): -0.2%
- Changes(%) of basal values, heart rate ([5]; 2.0 mg/kg i.v., 20 min): 0%
- Changes(%) of basal values, heart rate ([5]; 2.0 mg/kg i.v., 30 min): 0%
- Changes(%) of basal values, heart rate ([5]; 2.0 mg/kg i.v., 40 min): 0%
- Changes(%) of basal values, heart rate ([5]; 2.0 mg/kg i.v., imm.): -2.8%
- Changes(%) of basal values, heart rate ([5]; 6.0 mg/kg i.v., 1 min): +5.1%
- Changes(%) of basal values, heart rate ([5]; 6.0 mg/kg i.v., 5 min): +1.3%
- Changes(%) of basal values, heart rate ([5]; 6.0 mg/kg i.v., 10 min): -0.3%
- Changes(%) of basal values, heart rate ([5]; 6.0 mg/kg i.v., 20 min): -1.0%
- Changes(%) of basal values, heart rate ([5]; 6.0 mg/kg i.v., 30 min): 0%
- Changes(%) of basal values, heart rate ([5]; 6.0 mg/kg i.v., 40 min): 0%
- Changes(%) of basal values, heart rate ([5]; 6.0 mg/kg i.v., imm.): -5.3%
- Changes(%) of basal values, heart rate ([5]; 20.0 mg/kg i.v., 1 min): +0.8%
- Changes(%) of basal values, heart rate ([5]; 20.0 mg/kg i.v., 5 min): +1.6%
- Changes(%) of basal values, heart rate ([5]; 20.0 mg/kg i.v., 10 min): -1.0%
- Changes(%) of basal values, heart rate ([5]; 20.0 mg/kg i.v., 20 min): -1.4%
- Changes(%) of basal values, heart rate ([5]; 20.0 mg/kg i.v., 30 min): -28%
- Changes(%) of basal values, heart rate ([5]; 20.0 mg/kg i.v., 40 min): -2.0%
- Changes(%) of basal values, heart rate ([5]; 20.0 mg/kg i.v., imm.): -25.6%
- Effects on heart rate (in words) ([5]; i.v., anesthetized dogs): a slight negative chronotropic effect
